In brackets after ≈: the same amount, converted by molar mass.
Key:
[1] = system: acetylcholinesterase (AChE); conditions: previous studies; cited from earlier work
[2] = ABTS radical scavenging assay; conditions: positive control
Method: The experimental procedure is derived from the previous methods with some modifications[35]^,[36]. A mixture of 7.0 mM 2,2-azinobis(3-ethylbenzothiazoline-6-sulfonate) (ABTS) solution and 2.6 mM potassium persulfate was prepared to generate the ABTS^•+ free radical. The mixture was subsequently stored in the dark at room temperature for 12 h, facilitating the entire generation of the ABTS^•+ free radical. Additionally, ethanolic EO solutions were prepared at 50, 25, 10, 5, 2.5, and 1 mg/mL concentrations. A microplate reader (Epoch, Biotech company, Minneapolis, MN, USA) was utilised to ascertain the absorbance of the solution, delineated as the absorbance at 734 nm six minutes post-initiation of the reaction. For comparison, ethanol was used as the blank and gradient-diluted solvent. Meanwhile, 0.5 mg/mL 6‐hydroxy‐2,5,7,8‐tetramethylchroman‐2‐carboxylic acid (Trolox) was utilised as the positive control. The ABTS radical scavenging capacity (RSC%) was calculated using the Equation (1). (1) RSC%=A0−A/A0×100% where A0 and A are the absorbance of 200 μL diluted ABTS^•+ solution mixed with 50 μL ethanol and 50 μL sample solution, respectively, at 734 nm. IC50 was then calculated. All tests were performed in triplicates.

[3] = DPPH radical scavenging assay; conditions: positive control
Method: The experimental procedure was adapted from previous research with minor modifications. The concentrations of Trolox (positive control) and the mother solution of the essential oil EO were 1.0 mg/mL and 20 mg/mL, respectively, in an ethanolic system. 50 μL of the positive control or EO solution was pipetted into a 96‐well microplate and 200 μL of a 2,2-diphenyl-1-picrylhydrazyl (DPPH) solution. The microplate was incubated in the dark at 25 °C for 30 min, and then the absorbance was measured at 517 nm using an Epoch microplate absorbance spectrophotometer (Epoch, Biotech company, Minneapolis, MN, USA). The DPPH radical scavenging capacity (RSC%) was calculated using the Equation (2). […] (2) RSC%=(1−ASample−ASample Blank/AControl)×100% where, ASample is the absorbance of the tested sample at different concentrations, AControl is the absorbance of the control (ethanolic DPPH solution), and ASample Blank is the absorbance of the ethanol sample without DPPH.

[4] = biological target: β-lactamase; conditions: cited from earlier work

Sequence of acetylcholinesterase (AChE) (P22303 32-614, species assumed): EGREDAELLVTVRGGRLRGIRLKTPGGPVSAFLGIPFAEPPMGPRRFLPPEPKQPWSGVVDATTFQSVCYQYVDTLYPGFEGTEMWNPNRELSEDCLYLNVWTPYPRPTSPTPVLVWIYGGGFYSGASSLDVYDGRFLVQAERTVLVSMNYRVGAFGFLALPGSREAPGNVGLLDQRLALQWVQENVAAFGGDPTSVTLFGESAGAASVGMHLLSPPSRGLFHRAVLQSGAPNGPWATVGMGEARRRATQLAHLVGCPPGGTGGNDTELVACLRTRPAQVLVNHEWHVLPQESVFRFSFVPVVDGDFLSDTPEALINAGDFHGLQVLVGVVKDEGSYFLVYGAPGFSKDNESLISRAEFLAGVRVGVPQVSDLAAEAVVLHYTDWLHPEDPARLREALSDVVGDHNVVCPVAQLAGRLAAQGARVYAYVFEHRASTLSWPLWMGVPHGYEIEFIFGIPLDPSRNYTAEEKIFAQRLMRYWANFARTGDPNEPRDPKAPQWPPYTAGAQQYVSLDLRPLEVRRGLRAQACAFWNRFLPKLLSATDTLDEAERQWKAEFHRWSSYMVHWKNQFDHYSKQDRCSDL

## C=C[C@](C)(O)CC[C@@H]1[C@@]2(C)CCCC(C)(C)[C@@H]2CC[C@@]1(C)O [Sclareol]
[1]
  Inhibition against AChE: significant inhibition

## Cc1c(C)c2c(c(C)c1O)CCC(C)(C(=O)O)O2 (stereo not shown) [Trolox, 6‐hydroxy‐2,5,7,8‐tetramethylchroman‐2‐carboxylic acid]
[2]
  IC50 of ABTS radical scavenging capacity: 6.15 ± 0.15 µg/mL
[3]
  IC50 of DPPH scavenging capacity: 9.94 ± 0.20 µg/mL

## COC(=O)C=Cc1ccccc1 [methyl cinnamate]
[4]
  IC50: 11.6 µg/mL (≈ 71.5 µM)

Reference: paper PMC11803819, “Chemical composition, antioxidant activities, and enzyme inhibitory effects of Lespedeza bicolour Turcz. essential oil” (Journal of Enzyme Inhibition and Medicinal Chemistry, 2025)
